Measured values: publication PMC10092844, “Inhibition profile of trifludimoxazin towards PPO2 target site mutations” (Pest Management Science, 2022)
Residue numbers refer to the chain shown, from its start.

How the values were obtained:
PPO2 R128L ΔG210 = target: T1, PPO2 R128L ΔG210 (Amaranthus tuberculatus, UniProt Q0NZW9, DEL210-210/R128L); test: biochemical; type: biochemical
T1 sequence (Q0NZW9 with tags, fused parts or gaps R128L/DEL210-210): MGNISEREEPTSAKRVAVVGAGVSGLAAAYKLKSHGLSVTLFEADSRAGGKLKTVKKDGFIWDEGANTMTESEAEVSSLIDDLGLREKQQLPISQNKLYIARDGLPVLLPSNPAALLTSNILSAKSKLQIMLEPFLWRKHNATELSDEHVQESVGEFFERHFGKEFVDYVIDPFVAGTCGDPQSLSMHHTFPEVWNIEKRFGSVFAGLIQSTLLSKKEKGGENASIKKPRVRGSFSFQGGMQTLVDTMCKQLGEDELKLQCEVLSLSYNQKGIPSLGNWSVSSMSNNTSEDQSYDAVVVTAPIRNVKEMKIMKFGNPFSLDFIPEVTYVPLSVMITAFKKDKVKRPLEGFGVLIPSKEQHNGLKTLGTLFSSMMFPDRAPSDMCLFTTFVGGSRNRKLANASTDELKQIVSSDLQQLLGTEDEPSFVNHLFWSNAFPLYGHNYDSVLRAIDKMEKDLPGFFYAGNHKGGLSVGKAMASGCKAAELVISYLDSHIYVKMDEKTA

PPO2 R128T ΔG210 = target: T2, PPO2 R128T ΔG210 (Amaranthus tuberculatus, UniProt Q0NZW9, DEL210-210/R128T); type: biochemical
T2 sequence (Q0NZW9 with tags, fused parts or gaps R128T/DEL210-210): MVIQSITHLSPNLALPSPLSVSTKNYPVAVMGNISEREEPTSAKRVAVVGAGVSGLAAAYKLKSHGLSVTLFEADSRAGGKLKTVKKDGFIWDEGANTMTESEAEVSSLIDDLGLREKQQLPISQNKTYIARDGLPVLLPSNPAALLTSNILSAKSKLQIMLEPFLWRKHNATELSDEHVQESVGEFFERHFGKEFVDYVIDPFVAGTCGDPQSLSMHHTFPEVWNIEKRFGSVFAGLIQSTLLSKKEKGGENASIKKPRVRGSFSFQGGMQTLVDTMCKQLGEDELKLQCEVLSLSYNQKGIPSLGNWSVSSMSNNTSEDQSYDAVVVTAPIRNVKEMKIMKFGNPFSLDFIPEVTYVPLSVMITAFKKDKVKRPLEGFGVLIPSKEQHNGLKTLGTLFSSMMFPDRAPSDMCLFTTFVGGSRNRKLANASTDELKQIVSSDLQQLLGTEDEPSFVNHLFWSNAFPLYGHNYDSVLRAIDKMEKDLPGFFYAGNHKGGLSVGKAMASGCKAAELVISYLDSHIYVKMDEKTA

PPO2 R128M ΔG210 = target: T3, PPO2 R128M ΔG210 (Amaranthus tuberculatus, UniProt Q0NZW9, DEL210-210/R128M); test: biochemical; type: biochemical
T3 sequence (Q0NZW9 with tags, fused parts or gaps R128M/DEL210-210): T1 sequence (Q0NZW9 with tags, fused parts or gaps R128L/DEL210-210) with L98M

[1] = target: T4, PPO2 R128L ΔG210 in Escherichia coli hemG (Amaranthus tuberculatus, UniProt Q0NZW9, DEL210-210/R128L, cells depend on it); type: cell-based; settings: read-out: IC50 (E. coli hemG growth)
T4 sequence (Q0NZW9 with tags, fused parts or gaps R128L/DEL210-210): T1 sequence (Q0NZW9 with tags, fused parts or gaps R128L/DEL210-210)

[2] = target: T5, PPO2 R128I ΔG210 in Escherichia coli hemG (Amaranthus tuberculatus, UniProt Q0NZW9, DEL210-210/R128I, cells depend on it); type: cell-based; settings: read-out: IC50 (E. coli hemG growth)
T5 sequence (Q0NZW9 with tags, fused parts or gaps R128I/DEL210-210): T1 sequence (Q0NZW9 with tags, fused parts or gaps R128L/DEL210-210) with L98I

[3] = target: T6, PPO2 R128T ΔG210 in Escherichia coli hemG (Amaranthus tuberculatus, UniProt Q0NZW9, DEL210-210/R128T, cells depend on it); type: cell-based; settings: read-out: IC50 (E. coli hemG growth)
T6 sequence (Q0NZW9 with tags, fused parts or gaps R128T/DEL210-210): T2 sequence (Q0NZW9 with tags, fused parts or gaps R128T/DEL210-210)

Compound | IC50 (PPO2 R128L ΔG210) | IC50 (PPO2 R128T ΔG210) | IC50 (PPO2 R128M ΔG210) | IC50 [1] | IC50 [2] | IC50 [3] | Resistance factor (PPO2 R128L ΔG210) | Resistance factor (PPO2 R128T ΔG210) | Resistance factor (PPO2 R128M ΔG210)
CS(=O)(=O)NC(=O)c1cc(Oc2ccc(C(F)(F)F)cc2Cl)ccc1[N+](=O)[O-] [Fomesafen, fomesafen] | > 10 µM | > 10 µM | > 10 µM | – | – | – | – | – | –
CCOC(=O)C(C)OC(=O)c1cc(Oc2ccc(C(F)(F)F)cc2Cl)ccc1[N+](=O)[O-] (stereo not drawn) [Lactofen, lactofen] | 0.649 µM | 3.92 µM | > 10 µM | > 10 µM | > 10 µM | > 10 µM | – | – | –
CC(C)N(C)S(=O)(=O)NC(=O)c1cc(-n2c(=O)cc(C(F)(F)F)n(C)c2=O)c(F)cc1Cl [Saflufenacil, saflufenacil] | > 10 µM | > 10 µM | > 10 µM | > 10 µM | > 10 µM | > 10 µM | – | – | –
C#CCN1C(=O)C(F)(F)Oc2cc(F)c(-n3c(=O)n(C)c(=S)n(C)c3=O)cc21 [Trifludimoxazin, trifludimoxazin] | 0.00568 µM | 0.0748 µM | 0.182 µM | 0.0399 µM | 0.0829 µM | 0.0675 µM | 23 | 305 | 743
